Results from paper PMC8945122 (ACS Omega, 2022).
“Also recorded” adds a separate entry of the source.

Tests used:
[1] = target: soluble T cell receptor P14; assay: SPR
endogenous CD8^+ T cells = conditions: mouse, in vivo; cited from earlier work
[2] = tested on: H-2D^b/peptide complexes (pMHC); design: species or system murine; conditions: for melting temperature (Tm): pH 7.4
H-2D^b = H-2D^b (Mus musculus, UniProt P01899); design: species or system murine
TCR P14 = type: binding

Sequence of H-2D^b (P01899 whole entry, looked up): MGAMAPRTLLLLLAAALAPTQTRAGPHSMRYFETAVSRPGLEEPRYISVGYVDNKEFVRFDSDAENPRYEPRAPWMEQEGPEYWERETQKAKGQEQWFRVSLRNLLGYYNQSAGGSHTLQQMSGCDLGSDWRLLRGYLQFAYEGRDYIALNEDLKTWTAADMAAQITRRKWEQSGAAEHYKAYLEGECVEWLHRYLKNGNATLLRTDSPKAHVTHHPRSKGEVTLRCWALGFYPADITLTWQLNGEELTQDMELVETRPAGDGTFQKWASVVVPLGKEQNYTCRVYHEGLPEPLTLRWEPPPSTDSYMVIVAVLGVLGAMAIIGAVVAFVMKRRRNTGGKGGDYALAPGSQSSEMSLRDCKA

H-2D^b/gp33 (from UniProt P01887) (peptide-MHC)
Kd [1]: 6.3 µM

KAPFNFATM [V3P_Y4F]
recognition of Y4F-presenting infected cells by endogenous CD8^+ T cells (endogenous CD8^+ T cells): efficiently restores recognition of infected cells presenting Y4F by endogenous CD8^+ T cells

KAPYNFATM [V3P]
melting temperature (Tm) [2]: 66.0 °C

KAPYNfATM [V3P_F6f]
thermal stability of pMHC (in words) [2]: slight decrease in stability
melting temperature (Tm) [2]: 64.0 °C
conformation of p6f / p4Y side chains and H155 (H-2D^b): prevents the H-2D^b residue H155 to rotate counter clock wise and to assume a TCR-bound-like conformation
distances H-2D^b W73:NH–p6:CO and H-2D^b Y156:OH–p6:NH (H-2D^b): both distances increase in comparison to the corresponding structures with the L-amino acid
pMHC complex formation (H-2D^b): does not compromise complex formation
binding by TCR P14 (in words) (TCR P14): reduced P14 affinity; also recorded: significantly reduced binding by the H-2D^b/gp33-specific TCR P14

KAVYNFATM [gp33, reference compound]
melting temperature (Tm) [2]: 63.5 °C

KAVYNfATM [F6f]
thermal stability of pMHC (in words) [2]: slight decrease in stability
melting temperature (Tm) [2]: 61.5 °C
conformation of p6f / p4Y side chains and H155 (H-2D^b): the side chain of p6f takes a different conformation in H-2D^b/F6f compared to H-2D^b/gp33
distances H-2D^b W73:NH–p6:CO and H-2D^b Y156:OH–p6:NH (H-2D^b): both distances increase in comparison to the corresponding structures with the L-amino acid
pMHC complex formation (H-2D^b): does not compromise complex formation
binding by TCR P14 (in words) (TCR P14): reduced P14 affinity; also recorded: significantly reduced binding by the H-2D^b/gp33-specific TCR P14
